This passage reports stability results from PubChem BioAssay AID624456 (Sanford-Burnham Center for Chemical Genomics, 2012).

This data set deals with compound stability in 1x PBS, percent remaining. As to the kind of experiment: percent compound remaining in PBS buffer – biochemical, 1x PBS, with and without 50% ACN, set 2, ADME assay (AID 624456).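 Also: percent left after two days of incubation at room temperature.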
Setting [1] is: measured here: stability in PBS with 50% ACN.

`COc1ccc(C2c3c(ncn(CCN4CCOCC4)c3=N)Oc3ccc4ccccc4c32)cc1OC` (centres undefined) yielded a stability of 76.7%. For the same compound, under setting [1], the stability came to 85.6%.
Regarding `O=c1[nH]c2c(s1)C(c1cccnc1)C1C3CCC(C3)C1S2` (centres undefined), the stability turned out to be 55%. Besides, the stability under setting [1] was 66.5%.
`COc1ccc(OC)c(-c2nnc3n2N=C(c2ccc(OC)c(OC)c2)CS3)c1`: the stability was 89.6%. The compound further yielded a stability under setting [1] of 99.6%.
Compound `Cc1ccc(NS(=O)(=O)c2ccc3c(c2)CCC(=O)N3)cc1C` had a stability of 68.5%. This compound also displayed a stability under setting [1] of 100%.
On the same counts, the results for `Cc1ccc(C)c(OCCn2cc(C(=O)O)c3ccccc32)c1` are 90.3% and 100%.
With `CC(C)C(=O)NC(c1ccco1)c1ccc2cccnc2c1O` (centres undefined), the stability is 92.9%. Besides, the stability under setting [1] was determined as 100%.
`CCCc1cc(C(=O)N(C2CCCCC2)C2CCCCC2)no1` showed a stability of 6.53%. In addition, under setting [1], the stability was 76.7%.
With `COc1ccc(S(=O)(=O)n2nc(OC(=O)c3ccccc3)cc2N)cc1`, the stability turned out to be 11.1%. In addition, the stability under setting [1] stood at 91.8%.
The matching figures for `Cc1ccc(S(=O)(=O)n2c(N)nc3ccccc32)cc1`: 97.8% and 98.8%.
In the case of `Cc1ccnc(NC(=O)CCCOc2cc(=O)n(C)c3ccccc23)c1`, the stability was determined as 93.8%. The stability under setting [1] was found to be 100%.
With `c1ccc2c(Nc3nnc(-c4ccncc4)s3)cccc2c1`, the stability stood at 84.2%. In addition, under setting [1], the stability was found to be 100%.
As for `COc1ccc(N(C(=O)CCl)C(C(=O)NCCc2ccccc2)c2cccs2)cc1Cl` (centres undefined), the stability worked out at 71.8%. For the same compound, under setting [1], the stability was found to be 100%.
For `C=CCn1c(SCC(=O)c2ccc(O)c(O)c2)nnc1-c1ccccc1OC`, the stability was determined as 82.6%. Besides, under setting [1], the stability is 100%.
In turn, `N#Cc1ccccc1CSc1nc2ncc(Br)cc2[nH]1` returned a stability of 60.5%. The compound further yielded a stability under setting [1] of 55.9%.
The compound `Cc1ccc(C)c(NS(=O)(=O)c2cc(C(=O)Nc3ccccc3-c3ccccc3)ccc2Cl)c1` gave a stability of 34.6%. The same compound yielded a stability under setting [1] of 98%.
Consider `C/C=C/Cn1c(SCCCc2ccccc2)nc2c1c(=O)[nH]c(=O)n2C`, for which the stability came out at 73.4%. The stability under setting [1] is 100%.
Regarding `COC(=O)c1ccccc1NC(=O)c1ccc(F)cc1`, the stability turned out to be 11.2%. Besides, the stability under setting [1] came out at 93.4%.
`COc1ccccc1N(/N=C1\Sc2ccccc2C1=O)C(C)=O` yielded a stability of 81.6%. Moreover, the stability under setting [1] came out at 88.1%.
On the same counts, the results for `CCCn1ncc(CN2CCCC(C(=O)c3cccc(OC(C)C)c3)C2)c1C` (centres undefined) are 100% and 100%.
For `O=C(O)c1cccnc1SCCc1ccccc1`, the stability amounted to 96.5%. The stability under setting [1] was found to be 100%.
Take `Cc1nc(SCc2nc3ccccc3[nH]2)c2oc3ccccc3c2n1`: the stability came to 74.2%. The compound also yielded a stability under setting [1] of 84.7%.
Compound `Cc1ccc(N2CCN(S(=O)(=O)N3CCCCC3)CC2)c(C)c1` showed a stability of 15.1%. The compound also came in with a stability under setting [1] of 96.7%.
`O=C(c1ccccn1)N(Cc1cccs1)C1(C(=O)NC2CCCCC2)CCCCC1`: the stability was found to be 93.9%. The compound also registered a stability under setting [1] of 97.5%.
In turn, `COc1ccc(C2CC(c3ccccc3)=NN2c2ccc(S(N)(=O)=O)cc2)cc1` (centres undefined) showed a stability of 58.2%. The stability under setting [1] stood at 90.9%.
As for `Cc1ccc(C(=O)n2c3ccccc3c3ccccc32)cc1`, the stability is 77.2%. In addition, under setting [1], the stability was 74.6%.
Regarding `O=C(CSc1cccc2cccnc12)N1CCCC1`, the stability is 100%. For the same compound, the stability under setting [1] was determined as 100%.
Consider `COc1ccc(CSc2nc(C)cc(=O)[nH]2)cc1`, for which the stability came out at 88.5%. Further, the stability under setting [1] worked out at 99.8%.
Take `O=C(COc1ccccc1Br)NCCc1nc2ccccc2[nH]1`: the stability is 92.1%. This compound displayed a stability under setting [1] of 100%.
In the case of `Cc1cc(C(=O)CN2C(=O)CCC2=O)c(C)n1Cc1ccccc1`, the stability amounted to 73%. In addition, the stability under setting [1] stood at 85.4%.
The matching figures for `O=c1[nH]c(SCc2ccc(Cl)cc2)nc2c1CCC2`: 98.3% and 100%.
The compound `CCc1nnc(NC(=O)c2ccc(NS(=O)(=O)c3ccccc3)cc2)s1` registered a stability of 86%. Under setting [1], the stability turned out to be 95.2%.
The matching figures for `Cc1ccc(S(=O)(=O)NCc2ccc(C(=O)NCCN(Cc3ccccc3)C(C)C)cc2)cc1`: 84.8% and 100%.
For `CSc1nc(-c2ccc(C)cc2)nc(C(Cl)Cl)n1`, the stability came to 0.45%. The stability under setting [1] was found to be 96.5%.
For `CC[C@H]1CN2CCc3cc(OC)c(OC)cc3[C@@H]2C[C@@H]1C[C@H]1NCCc2cc(OC)c(OC)cc21`, the stability came out at 23.6%. Under setting [1], this compound displayed a stability of 90%.
Regarding `CN(C)c1nc(N)nc(CSc2nnnn2-c2cccc3ccccc23)n1`, the stability is 75.8%. In addition, the stability under setting [1] was 94.6%.
`Cc1cc(-c2nnc3n2CCCCC3)c(C)n1-c1ccccc1`: the stability was 100%. In addition, under setting [1], the stability amounted to 100%.
Regarding `COc1ccc(OC)c(S(=O)(=O)Nc2cnc3ccccc3c2)c1`, the stability was determined as 89.6%. Under setting [1], this compound came in with a stability of 93%.
Take `NC(=O)C1CCN(c2nc(-c3ccc(Br)cc3)cs2)CC1`: the stability is 70.8%. The stability under setting [1] was determined as 100%.
For the compound `CC(=O)c1ccc(N2CCN(S(=O)(=O)c3ccc4c(c3)CC(=O)N4)CC2)cc1`, the stability was determined as 95.7%. This compound had a stability under setting [1] of 100%.
Regarding `Cc1cccc(-n2cnc3cc(C(=O)N4CCCCC4)ccc32)c1`, the stability turned out to be 43.5%. This compound also showed a stability under setting [1] of 80%.
`c1ccc(-c2nnc(N3CCOCC3)nc2-c2ccccc2)cc1` came in with a stability of 57.4%. In addition, the stability under setting [1] came out at 100%.
In the case of `COc1cccc(-c2nc(-c3ccc(NC(=O)Cc4ccccc4OC)cc3)no2)c1`, the stability turned out to be 81.5%. The same compound showed a stability under setting [1] of 90.4%.
Take `CCN1CCN(c2nc3ccccc3nc2C(C#N)C(=O)OC2CCCCC2)CC1` (centres undefined): the stability was 33.4%. Besides, the stability under setting [1] is 80.1%.
For `CCc1oc2ccccc2c1C(=O)c1cc(Br)c(O)c(Br)c1`, the stability came to 100%. Also, the stability under setting [1] worked out at 100%.
Regarding `COc1ccc(CNCc2cccc3ccccc23)cc1`, the stability stood at 50.6%. Further, the stability under setting [1] worked out at 100%.
`CCCC(=O)Nc1cccc(NC(=O)c2ccccc2Br)c1`: the stability was 79.5%. Also, the stability under setting [1] came to 86.7%.
Turning to `O=C1NCCCc2c1oc1ccc(O)cc21`, the stability worked out at 100%. For the same compound, under setting [1], the stability was determined as 100%.
On to `O=C1C2CC=CCC2C(=O)N1c1n[nH]c(-c2ccccc2)n1` (centres undefined), for which the stability was 50.8%. The same compound returned a stability under setting [1] of 100%.
`Brc1cc2c(cc1C1Nc3ccccc3C3C=CCC31)OCO2` (centres undefined) came in with a stability of 0.38%. In addition, the stability under setting [1] stood at 68.9%.
Take `O=S(=O)(NC1CCCCC1N1CCOCC1)c1ccc(Cl)cc1` (centres undefined): the stability amounted to 75%. Under setting [1], the stability was found to be 89.4%.
Take `CCOc1ccc(-c2nc(-c3ccncc3)no2)cc1OCC`: the stability came to 59.9%. In addition, under setting [1], the stability is 100%.
`O=C(CCNS(=O)(=O)c1cccc2nsnc12)N1CCN(c2ccccn2)CC1` gave a stability of 91.6%. Under setting [1], this compound registered a stability of 100%.
